What was measured:
[1] = test system: A549, PC3 and HCT116 cells; assay: Cell Growth/Viability Assays (CellTiter-Glo); assay type: cell-based; details: Homo sapiens; 48 h incubation; cancer cells
Method: Cell Growth/Viability Assays. All assays were performed using at least three replicate wells for each compound concentration tested. Cells were seeded in 96-well white plates at the density of 1000 cells/well in 100 μL of the appropriate cell culture media. Adherent A549, PC3 and HCT116 cells were allowed to attach and grow for 24 h and then treated with 30 μL of the solution of a compound and incubated further for 48 h. After incubation, cell viability was determined using a luminescence-based commercial kit (CellTiter-Glo, Promega) and luminescence was analyzed using a Wallac Victor III plate reader. Compound concentration that gave 50% reduction in cell viability when compared with untreated control cells was calculated from sigmoidal plots of cell viability versus drug concentration. To measure cell growth inhibition, similar viability assays were performed twice: at 0 h and after 48 h incubation. And then change in number of viable cells was measured and calculated from sigmoidal plots.
Biological Activity—Using methods similar to that described above, the following compounds were tested.

Yeast = Yeast activity; assay type: cell-based
[2] = test system: HCT-116 colon cancer cells; details: HCT-116 cells; cited from earlier work
[3] = test system: W303 strain of yeast S. cerevisiae; details: 11.2 mg per disk; cited from earlier work
[4] = test system: human A549 non-small lung caner cells; details: cited from earlier work

Compound | GI50 [1] | Yeast: Active/Inactive (Yeast) | GI50 [2] | inhibition diameter per disk [3] | GI50 [4]
COC(=O)NC/C=C\c1nc(CC/C=C\C(=O)O[C@@H]2CC3CC(=O)O[C@H](/C=C/CC(C)C)CC4CCCC(C[C@H](OC)CC(C2)O3)O4)co1 (some centres unmarked) | 10 to 100 nM | Yeast: Active | – | – | –
COC(=O)NC/C=C\c1nc(CC/C=C\C(=O)O[C@H]2CC3CC(=O)O[C@@H](CCCCCO)CC4CCCC(C[C@@H](OC)CC(C2)O3)O4)co1 (mixture of isomers) [racemic JJ-2-194] | 10 to 100 nM | Yeast: Inactive | – | – | –
COC(=O)NC/C=C\c1nc(CC/C=C\C(=O)O[C@H]2CC3CC(=O)O[C@@H](CCCCCCCCc4cn(CCCNC(=O)OC(C)(C)C)nn4)CC4CCCC(C[C@@H](OC)CC(C2)O3)O4)co1 (mixture of isomers) [racemic JJ-2-288] | 10 to 100 nM | Yeast: Active | – | – | –
C#CCCCCCCCC[C@H]1CC2CCCC(C[C@@H](OC)CC3C[C@@H](OC(=O)/C=C\CCc4coc(/C=C\CNC(=O)OC)n4)CC(CC(=O)O1)O3)O2 (mixture of isomers) [racemic JJ-2-286] | 1 to 10 nM | Yeast: Active | – | – | –
COC(=O)NC/C=C\c1nc(CC/C=C\C(=O)O[C@H]2CC3CC(=O)O[C@@H](/C=C/CC(C)C)CC4CCCC(C[C@@H](OC)CC(C2)O3)O4)co1 (single isomer, unassigned; (+)) [(+)-JJ-2-37] | 1 to 10 nM | Yeas: Active | – | – | –
COC(=O)NC/C=C\c1nc(CC/C=C\C(=O)OC2CC3CC(=O)O[C@H](/C=C/CC(C)C)C[C@H]4CCC(C)C(C[C@H](OC)CC(C2)O3)O4)co1 (some centres unmarked) [Leucascandrolide A] | – | – | 0.87 nM | 33 mm | 0.93 nM
CCCCC[C@H]1CC2CCCC(C[C@@H](OC)CC3C[C@@H](OC(=O)/C=C\CCc4coc(/C=C\CNC(=O)OC)n4)CC(CC(=O)O1)O3)O2 (mixture of isomers) [racemic JJ-2-173] | 1 to 10 nM | Yeast: Active | – | – | –
COC(=O)NC/C=C\c1nc(CC/C=C\C(=O)O[C@H]2CC3CC(=O)O[C@@H](CCCC(C)C)CC4CCCC(C[C@@H](OC)CC(C2)O3)O4)co1 (mixture of isomers) [racemic JJ-2-96] | 1 to 10 nM | Yeast: Active | – | – | –

Reference: patent publication US7569594B2, “Analogs of leucascandrolide A” (The University of Chicago, priority 2005, dated 2009)
